Results on 51 compounds are retold here after patent US20220259193A1, “KCNT1 INHIBITORS AND METHODS OF USE” (Praxis Precision Medicines, Inc., priority 2019, published 2022).

Molecules are shown by their SMILES. Where only a bound is given, the exact number is not on record here.

By IC50 is commonly meant the concentration that inhibits the measured activity by half.

In the experiment the target is T1, KCNT1 (KNa1.1, Slack) (Homo sapiens, UniProt Q5JUK3).
T1 construct: expressed in transfected cells; host or cells: HEK-TREX (tetracycline-inducible HEK cell line)
T1 sequence (Q5JUK3 1-1230): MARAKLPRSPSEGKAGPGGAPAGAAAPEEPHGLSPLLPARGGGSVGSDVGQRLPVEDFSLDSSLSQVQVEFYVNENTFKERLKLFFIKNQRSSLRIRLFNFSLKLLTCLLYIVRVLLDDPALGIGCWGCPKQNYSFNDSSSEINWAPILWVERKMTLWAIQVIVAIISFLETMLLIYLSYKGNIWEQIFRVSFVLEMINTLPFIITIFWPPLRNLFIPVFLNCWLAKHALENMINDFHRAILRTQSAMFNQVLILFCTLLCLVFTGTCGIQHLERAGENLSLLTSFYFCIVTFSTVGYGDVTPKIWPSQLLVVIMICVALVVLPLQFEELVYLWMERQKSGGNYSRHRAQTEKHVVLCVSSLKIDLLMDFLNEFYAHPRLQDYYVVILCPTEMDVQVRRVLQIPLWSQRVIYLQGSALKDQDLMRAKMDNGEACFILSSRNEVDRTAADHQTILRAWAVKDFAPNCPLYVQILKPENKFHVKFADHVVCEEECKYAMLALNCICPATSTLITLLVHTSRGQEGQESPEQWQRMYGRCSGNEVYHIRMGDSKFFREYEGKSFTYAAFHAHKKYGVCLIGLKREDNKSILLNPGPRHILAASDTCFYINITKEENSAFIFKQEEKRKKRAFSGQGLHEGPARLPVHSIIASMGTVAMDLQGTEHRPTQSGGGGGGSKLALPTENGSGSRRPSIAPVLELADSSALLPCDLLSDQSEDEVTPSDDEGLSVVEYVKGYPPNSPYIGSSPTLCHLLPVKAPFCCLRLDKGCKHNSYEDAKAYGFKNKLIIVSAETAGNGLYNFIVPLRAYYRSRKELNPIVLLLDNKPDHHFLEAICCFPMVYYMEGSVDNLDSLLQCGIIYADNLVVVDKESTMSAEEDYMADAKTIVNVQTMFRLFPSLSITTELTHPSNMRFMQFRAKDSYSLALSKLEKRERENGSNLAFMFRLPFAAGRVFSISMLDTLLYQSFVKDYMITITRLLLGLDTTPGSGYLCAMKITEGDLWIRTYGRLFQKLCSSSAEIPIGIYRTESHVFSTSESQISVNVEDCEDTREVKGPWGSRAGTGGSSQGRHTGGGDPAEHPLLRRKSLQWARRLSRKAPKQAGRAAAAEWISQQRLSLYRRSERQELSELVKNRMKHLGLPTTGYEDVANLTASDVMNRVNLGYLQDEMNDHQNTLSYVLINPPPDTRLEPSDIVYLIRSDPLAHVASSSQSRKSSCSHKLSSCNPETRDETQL
In words: KCNT1 patch clamp assay (SyncroPatch 384PE automated patch clamp). In kind it is cell-based. The settings on record: tetracycline inducible HEK-TREX cell line; perforated patch; step from −80 mV to 0 mV; room temperature; read-out: KCNT1-WT IC50. The protocol:
KCNT1—Patch Clamp Assay Inhibition of KCNT1 (KNa1.1, Slack) was evaluated using a tetracycline inducible cell line (HEK-TREX). Currents were recorded using the SyncroPatch 384PE automated, patch clamp system. Pulse generation and data collection were performed with PatchController384 V1.3.0 and DataController384 V1.2.1 (Nanion Technologies). The access resistance and apparent membrane capacitance were estimated using built-in protocols. Current were recorded in perforated patch mode (10 μM escin) from a population of cells. […] The cells were allowed to recover in the cell hotel prior to experimentation. Currents were recorded at room temperature. […] The extracellular solution was used as the wash, reference and compound delivery solution. […] Escin is made at a 5 mM stock in water, aliquoted, and stored at −20° C. The compound plate was created at 2× concentrated in the extracellular solution. The compound was diluted to 1:2 when added to the recording well. The amount of DMSO in the extracellular solution was held constant at the level used for the highest tested concentration. A holding potential of −80 mV with a 100 ms step to 0 mV was used. […] The average mean current from 3 sweeps was calculated and the % inhibition of each compound was calculated. The % Inhibition as a function of the compound concentration was fit with a Hill equation to derive IC50, slope, min and max parameters.

As to `CC(C)C(NC(=O)c1cc(C2CC2)nn1C)c1nc(-c2cccc(F)c2)no1` (stereo not drawn) [Compound 45], the IC50 was not above 1 µM.

Consider `CCC(NC(=O)c1cc(C2CC2)nn1C)c1nc(-c2cccc(F)c2)no1` (stereo not drawn) [Compound 48], for which the half-inhibitory concentration (IC50) was not above 1 µM.

For the compound `Cn1nc(C2CC2)cc1C(=O)NC(Cc1ccccc1)c1nc(-c2cccc(F)c2)no1` (stereo not drawn) [Compound 49], the IC50 lay within 1 to 20 µM.

In the case of `Cn1nc(C2CC2)cc1C(=O)NC(C)(C)c1nc(-c2cccc(F)c2)no1` [Compound 50], the IC50 lay in the range of 1 to 20 µM.

For the compound `Cn1nc(C2CC2)cc1C(=O)NC(c1ccccc1)c1nc(-c2cccc(F)c2)no1` (stereo not drawn) [Compound 51], the concentration for half-maximal inhibition (IC50) fell in the range of 1 to 20 µM.

For the compound `Cn1nc(C2CC2)cc1C(=O)NC(CO)c1nc(-c2cccc(F)c2)no1` (stereo not drawn) [Compound 54], the IC50 was not below 20 µM.

As to `Cc1cccc(-c2noc(C(C)NC(=O)c3c(C)cnn3C(C)C)n2)c1` (stereo not drawn) [Compound 55], the IC50 was in the range of 1 to 20 µM.

Regarding `Cn1nc(C2CC2)cc1C(=O)NC(COCc1ccccc1)c1nc(-c2cccc(F)c2)no1` (stereo not drawn) [Compound 58, N-[2-benzyloxy-1-[3-(3-fluorophenyl)-1,2,4-oxadiazol-5-yl]ethyl]-5-cyclopropyl-2-methyl-pyrazole-3-carboxamide], the IC50 is 1 to 20 µM.

Regarding `Cc1cccc(-c2noc(C(C)NC(=O)c3cnn(C(C)C)c3C)n2)c1` (stereo not drawn) [Compound 59], the IC50 is not below 20 µM.

As to `CC[C@H](NC(=O)c1cc(C2CC2)nn1C)c1nc(-c2cccc(F)c2)no1` [Compound 60], the IC50 is not above 1 µM.

As to `CC[C@@H](NC(=O)c1cc(C2CC2)nn1C)c1nc(-c2cccc(F)c2)no1` [Compound 61], the half-inhibitory concentration (IC50) is not above 1 µM.

Regarding `CC(C)[C@@H](NC(=O)c1cc(C2CC2)nn1C)c1nc(-c2cccc(F)c2)no1` [Compound 62], the IC50 lay within 1 to 20 µM.

Consider `CC(C)[C@H](NC(=O)c1cc(C2CC2)nn1C)c1nc(-c2cccc(F)c2)no1` [Compound 63], for which the half-maximal inhibitory concentration (IC50) was not above 1 µM.

`Cn1nc(C2CC2)cc1C(=O)NC1(c2nc(-c3cccc(F)c3)no2)CCCCC1` [Compound 66]: the IC50 is not above 1 µM.

For the compound `CC(NC(=O)c1cc(C(F)(F)F)nn1C)c1nc(-c2ccc(F)c(F)c2)no1` (stereo not drawn) [Compound 67], the half-inhibitory concentration (IC50) was not above 1 µM.

With `COCC(NC(=O)c1cc(C(F)(F)F)nn1C)c1nc(-c2cccc(C)c2)no1` (stereo not drawn) [Compound 72], the IC50 is not above 1 µM.

As to `CC(NC(=O)c1cc(C(F)(F)F)nn1C(F)F)c1nc(-c2cccc(Cl)c2)no1` (stereo not drawn) [Compound 73], the IC50 is not above 1 µM.

Regarding `CC(NC(=O)c1cc(C(F)(F)F)nn1C)c1nc(-c2ccc(Cl)cc2Cl)no1` (stereo not drawn) [Compound 75], the half-maximal inhibitory concentration (IC50) was not above 1 µM.

For `Cc1nn(C(C)C)cc1C(=O)N[C@@H](C)c1nc(-c2cccc(C#N)c2)no1` [Compound 85], the concentration for half-maximal inhibition (IC50) was not below 20 µM.

With `Cc1nn(C(C)C)cc1C(=O)N[C@@H](C)c1nc(-c2ccc(Cl)c(F)c2)no1` [Compound 86], the half-maximal inhibitory concentration (IC50) was not above 1 µM.

Consider `Cc1nn(C(C)C)cc1C(=O)N[C@@H](C)c1nc(-c2ccc(F)c(F)c2)no1` [Compound 87], for which the IC50 lay within 1 to 20 µM.

Regarding `Cc1nn(C(C)C)cc1C(=O)N[C@@H](C)c1nc(-c2ccc(F)c(Cl)c2)no1` [Compound 88], the IC50 was 1 to 20 µM.

Consider `Cc1nn(C(C)C)cc1C(=O)N[C@@H](C)c1nc(-c2cccc(C(F)(F)F)c2)no1` [Compound 89], for which the IC50 was not above 1 µM.

On to `Cc1nn(C(C)C)cc1C(=O)N[C@@H](C)c1nc(-c2ccc(F)cc2)no1` [Compound 90], for which the IC50 lay within 1 to 20 µM.

For the compound `Cc1nn(C(C)C)cc1C(=O)N[C@@H](C)c1nc(-c2cc(F)cc(Cl)c2)no1` [Compound 91], the concentration for half-maximal inhibition (IC50) was not above 1 µM.

In the case of `Cc1nn(C(C)C)cc1C(=O)N[C@@H](C)c1nc(-c2cc(F)cc(F)c2)no1` [Compound 92], the half-inhibitory concentration (IC50) was not above 1 µM.

Turning to `Cc1nn(C(C)C)cc1C(=O)N[C@@H](C)c1nc(-c2cccc(F)c2)no1` [Compound 95], the IC50 was in the range of 1 to 20 µM.

Consider `Cc1nn(C(C)C)cc1C(=O)NC(C)c1nc(-c2cccc(Cl)c2)no1` (stereo not drawn) [Compound 96], for which the half-inhibitory concentration (IC50) is not above 1 µM.

Consider `Cc1nn(C(C)C)cc1C(=O)NC(C)c1nc(-c2ccc(Cl)cc2)no1` (stereo not drawn) [Compound 97], for which the IC50 is not above 1 µM.

In the case of `Cc1nn(C(C)C)cc1C(=O)NC(C)c1nc(-c2ccc(C(F)(F)F)cc2)no1` (stereo not drawn) [Compound 98], the half-maximal inhibitory concentration (IC50) was 1 to 20 µM.

For `Cc1nn(C(C)C)cc1C(=O)NC(C)c1nc(-c2ccc(OC(F)(F)F)cc2)no1` (stereo not drawn) [Compound 99], the half-maximal inhibitory concentration (IC50) is 1 to 20 µM.

Take `Cc1nn(C(C)C)cc1C(=O)N[C@@H](C)c1nc(-c2cccc(OC(F)(F)F)c2)no1` [Compound 100]: the IC50 lay in the range of 1 to 20 µM.

As for `Cc1nn(C(C)C)cc1C(=O)NC(C)c1nc(-c2cccc(OC(F)F)c2)no1` (stereo not drawn) [Compound 101], the IC50 is 1 to 20 µM.

Take `CC(NC(=O)c1cc(C(F)(F)F)nn1C)c1nc(-c2cc(F)cc(F)c2)no1` (stereo not drawn) [Compound 103]: the IC50 is not above 1 µM.

On to `C[C@H](NC(=O)c1cc(C(F)(F)F)nn1C)c1nc(-c2cccc(C#N)c2)no1` [Compound 104], for which the IC50 was in the range of 1 to 20 µM.

For the compound `CC[C@H](NC(=O)c1cc(C(F)(F)F)nn1C)c1nc(-c2cccc(F)c2)no1` [Compound 105], the IC50 was not above 1 µM.

As for `CC[C@H](NC(=O)c1cc(C(F)(F)F)nn1CC(F)F)c1nc(-c2cccc(F)c2)no1` [Compound 111], the 50% inhibitory concentration (IC50) is not above 1 µM.

For the compound `CC[C@H](NC(=O)c1cc(C(F)(F)F)nn1C(F)F)c1nc(-c2cccc(F)c2)no1` [Compound 112], the 50% inhibitory concentration (IC50) is not above 1 µM.

On to `CC[C@H](NC(=O)c1cc(C(F)(F)F)nn1C1CC1)c1nc(-c2cccc(F)c2)no1` [Compound 113], for which the IC50 was not above 1 µM.

On to `Cn1nc(C(F)(F)F)cc1C(=O)NC1(c2nc(-c3cccc(F)c3)no2)CCOCC1` [Compound 118], for which the IC50 was in the range of 1 to 20 µM.

Turning to `Cn1nc(C(F)(F)F)cc1C(=O)NC1(c2nc(-c3cccc(F)c3)no2)COC1` [Compound 119], the IC50 was not above 1 µM.

As to `CC[C@H](NC(=O)c1cc(C(F)F)nn1C)c1nc(-c2cccc(F)c2)no1` [Compound 120], the 50% inhibitory concentration (IC50) was not above 1 µM.

Regarding `Cn1nc(C(F)(F)F)cc1C(=O)N[C@H](CC(=O)NCCO)c1nc(-c2cccc(F)c2)no1` [Compound 122], the IC50 is not below 20 µM.

Take `Cn1nc(C(F)(F)F)cc1C(=O)NC(CC(=O)N1CC(O)C1)c1nc(-c2cccc(F)c2)no1` (stereo not drawn) [Compound 123]: the IC50 is not below 20 µM.

As for `Cn1nc(C(F)(F)F)cc1C(=O)NC(CC(=O)N1CC(O)C1)c1nc(-c2cccc(F)c2)no1` (stereo not drawn) [Compound 124], the 50% inhibitory concentration (IC50) was not below 20 µM.

On to `C[C@H](NC(=O)c1cc(C(F)(F)F)nn1C(F)F)c1nc(-c2cccc(F)c2)no1` [Compound 127], for which the IC50 was not above 1 µM.

Turning to `C[C@H](NC(=O)c1cc(C(F)F)nn1C(F)F)c1nc(-c2cccc(F)c2)no1` [Compound 130], the half-maximal inhibitory concentration (IC50) is not above 1 µM.

For `CO[C@H](C)[C@H](NC(=O)c1cc(C(F)(F)F)nn1C)c1nc(-c2cccc(F)c2)no1` [Compound 131], the concentration for half-maximal inhibition (IC50) was in the range of 1 to 20 µM.

In the case of `C[C@H](NC(=O)c1cc(C(F)F)nn1C1CC1)c1nc(-c2cccc(F)c2)no1` [Compound 132], the IC50 is not above 1 µM.

`CC(NC(=O)c1c2c(nn1C)CCCC2)c1nc(-c2cccc(F)c2)no1` (stereo not drawn) [Compound 133]: the IC50 was 1 to 20 µM.

Regarding `CC(=O)NC[C@H](NC(=O)c1cc(C(F)(F)F)nn1C)c1nc(-c2cccc(F)c2)no1` [Compound 134], the IC50 is not below 20 µM.
